Source: PubChem BioAssay AID330 (DTP/NCI, 2004)
Where “and” joins values, the source holds several entries; their conditions need not be identical. Equal entries are not always repeated. Inconclusive results and toxic doses are left out. Rule for the calls: active = survival T/C of 150% or more; inactive = T/C below 125% in these data.

Tested on: P388 leukemia ip, CD2F1 mice, survival T/C
Test: NCI In Vivo Anticancer Drug Screen. Data for tumor model P388 Leukemia (intraperitoneal) in CD2F1 (CDF1) mice
Settings: endpoint: median survival time, higher = longer survival
Method in brief: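 Mice carrying the transplanted tumor received test compound or vehicle. Survival was recorded in each group, and the value is the treated-group measurement divided by that of the vehicle-treated control group.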

[1] = dose: 50.0 mg/kg/injection, schedule: Q01DX009 (ip), vehicle: saline
[2] = dose: 100.0 mg/kg/injection, schedule: Q01DX009 (ip), vehicle: saline
[3] = dose: 200.0 mg/kg/injection, schedule: Q01DX009 (ip), vehicle: saline
[4] = dose: 25.0 mg/kg/injection, schedule: Q01DX009 (ip), vehicle: saline
[5] = dose: 60.0 mg/kg/injection, schedule: Q01DX005 (ip), vehicle: saline
[6] = dose: 120.0 mg/kg/injection, schedule: Q01DX005 (ip), vehicle: saline
[7] = dose: 240.0 mg/kg/injection, schedule: Q01DX005 (ip), vehicle: saline
[8] = dose: 12.5 mg/kg/injection, schedule: Q01DX005 (ip), vehicle: saline with Tween-80
[9] = dose: 50.0 mg/kg/injection, schedule: Q01DX009 (ip), vehicle: saline with Tween-80
[10] = dose: 100.0 mg/kg/injection, schedule: Q01DX009 (ip), vehicle: saline with Tween-80
[11] = dose: 200.0 mg/kg/injection, schedule: Q01DX009 (ip), vehicle: saline with Tween-80
[12] = dose: 25.0 mg/kg/injection, schedule: Q01DX005 (ip), vehicle: saline with Tween-80
[13] = dose: 50.0 mg/kg/injection, schedule: Q01DX005 (ip), vehicle: saline with Tween-80
[14] = dose: 200.0 mg/kg/injection, schedule: Q01DX005 (ip), vehicle: saline with Tween-80
[15] = dose: 50.0 mg/kg/injection, schedule: Q01DX005 (ip), vehicle: Klucel (hydroxypropylcellulose) (HPC)
[16] = dose: 100.0 mg/kg/injection, schedule: Q01DX005 (ip), vehicle: Klucel (hydroxypropylcellulose) (HPC)
[17] = dose: 200.0 mg/kg/injection, schedule: Q01DX005 (ip), vehicle: Klucel (hydroxypropylcellulose) (HPC)

Measured: T/C

N#CNc1nnnn1-c1ccc(-n2nnnc2NC#N)cc1 (tested in a mixture with another compound)
inactive: dose: 100.0 mg/kg/injection, schedule: Q04DX003 (ip), vehicle: Klucel (hydroxypropylcellulose) (HPC) 92 % of control | dose: 200.0 mg/kg/injection, schedule: Q04DX003 (ip), vehicle: Klucel (hydroxypropylcellulose) (HPC) 91 % of control | dose: 400.0 mg/kg/injection, schedule: Q04DX003 (ip), vehicle: Klucel (hydroxypropylcellulose) (HPC) 90 % of control

CC(C)(C)c1ccc2c(c1)C(O)(c1ccccc1)C1OC1(C(C)(C)C)C2=O (configuration not stated)
inactive: [1] 106 % of control | [2] 100 % of control | [3] 91 % of control

CN1COc2ccc3ccccc3c2C1
inactive: [4] 101 % of control | [1] 98 % of control | [2] 106 % of control

CCCNCC/C=C/[Si](C)(C)C
inactive: [5] 105 % of control | [6] 100 % of control

NCCN.NCCN.[Cl-].[O]=[Re]=[O]
inactive: [5] 100 % of control | [6] 102 % of control | [7] 100 % of control

CC(C)=CCOc1cc(O)c(CC2=C(O)C(C)(C)C(=O)C(C(=O)C(C)C)=C2O)c(O)c1C(=O)c1ccccc1
inactive: dose: 0.83 mg/kg/injection, schedule: Q01DX005 (ip), vehicle: DMSO 110 % of control | dose: 1.65 mg/kg/injection, schedule: Q01DX005 (ip), vehicle: DMSO 103 % of control | dose: 3.3 mg/kg/injection, schedule: Q01DX005 (ip), vehicle: DMSO 103 % of control | dose: 6.6 mg/kg/injection, schedule: Q01DX005 (ip), vehicle: DMSO 88 % of control

Cc1ncc(COP(=O)(O)O)c(C2NCCS2)c1O (configuration not stated)
inactive: [5] 102 % of control | [6] 105 % of control | [7] 102 % of control

[O]=[Ge]([c]1ccccc1)[c]1ccccc1
inactive: [1] 95 % of control | [2] 96 % of control | [3] 92 % of control

CCCCn1c(Cl)c(/C=N\Nc2ccc([N+](=O)[O-])cc2[N+](=O)[O-])c2ccccc21
inactive: dose: 100.0 mg/kg/injection, schedule: Q04DX003 (ip), vehicle: saline with Tween-80 94 % of control | dose: 200.0 mg/kg/injection, schedule: Q04DX003 (ip), vehicle: saline with Tween-80 90 % of control | dose: 400.0 mg/kg/injection, schedule: Q04DX003 (ip), vehicle: saline with Tween-80 88 % of control

CCC1(C2OC(C3OC(O)(CO)C(C)CC3C)CC2C)CCC(C2(C)CCC3(CC(O)C(C)C(C(C)C(OC)C(C)C(=O)O)O3)O2)O1 (configuration not stated)
inactive: dose: 3.13 mg/kg/injection, schedule: Q01DX005 (ip), vehicle: saline with Tween-80 110 % of control and 112 % of control | dose: 6.25 mg/kg/injection, schedule: Q01DX005 (ip), vehicle: saline with Tween-80 108 % of control and 111 % of control and 118 % of control | [8] 120 % of control

CC(=O)N(OC1OC(CO)C(O)C(O)C1O)c1ccc(Oc2ccc(Cl)cc2)cc1 (configuration not stated)
inactive: dose: 60.0 mg/kg/injection, schedule: Q01DX005 (ip), vehicle: Klucel (hydroxypropylcellulose) (HPC) 104 % of control | dose: 120.0 mg/kg/injection, schedule: Q01DX005 (ip), vehicle: Klucel (hydroxypropylcellulose) (HPC) 92 % of control

O=C(c1ccccc1)C1OC1c1ccccc1 (configuration not stated)
inactive: [9] 104 % of control | [10] 105 % of control and 97 % of control | [11] 103 % of control and 114 % of control | dose: 400.0 mg/kg/injection, schedule: Q01DX009 (ip), vehicle: saline with Tween-80 109 % of control and 123 % of control | dose: 600.0 mg/kg/injection, schedule: Q01DX009 (ip), vehicle: saline with Tween-80 87 % of control

O=C(O)C(=O)Nc1cccc2c1ccc1c(=O)cc(C(=O)O)[nH]c12
inactive: [1] 109 % of control | [2] 109 % of control | [3] 104 % of control

Nc1nc2nc(N)[nH]c2c(=O)[nH]1
inactive: [8] 95 % of control | [12] 100 % of control and 105 % of control and 106 % of control | [13] 100 % of control and 104 % of control and 113 % of control | [14] 107 % of control

CN(C)CCCC#N
inactive: dose: 25.0 mg/kg/injection, schedule: Q04DX003 (ip), vehicle: saline 100 % of control | dose: 50.0 mg/kg/injection, schedule: Q04DX003 (ip), vehicle: saline 100 % of control | dose: 100.0 mg/kg/injection, schedule: Q04DX003 (ip), vehicle: saline 100 % of control

CCOC(=O)c1cc2c(=O)c3c(ccc4ccccc43)oc2n(C)c1=O
inactive: [8] 96 % of control | [12] 94 % of control | [13] 88 % of control

O=C1CCCc2[nH]c3ccc(Cl)cc3c21
inactive: [13] 92 % of control | dose: 100.0 mg/kg/injection, schedule: Q01DX005 (ip), vehicle: saline with Tween-80 99 % of control | [14] 92 % of control

CCCCC1NNC(CCCC)NN1 (configuration not stated)
inactive: dose: 50.0 mg/kg/injection, schedule: Q01DX009 (ip), vehicle: Klucel (hydroxypropylcellulose) (HPC) 104 % of control | dose: 100.0 mg/kg/injection, schedule: Q01DX009 (ip), vehicle: Klucel (hydroxypropylcellulose) (HPC) 104 % of control

COc1ccc2c(c1)nnn2C(=O)/C=C/c1ccccc1
inactive: dose: 12.5 mg/kg/injection, schedule: Q01DX009 (ip), vehicle: saline with Tween-80 94 % of control | dose: 25.0 mg/kg/injection, schedule: Q01DX009 (ip), vehicle: saline with Tween-80 107 % of control | [9] 101 % of control and 104 % of control

[CH3][Sn]([CH3])([Cl])[S]CCN
inactive: dose: 0.78 mg/kg/injection, schedule: Q01DX009 (ip), vehicle: saline 99 % of control | dose: 1.56 mg/kg/injection, schedule: Q01DX009 (ip), vehicle: saline 105 % of control | dose: 3.12 mg/kg/injection, schedule: Q01DX009 (ip), vehicle: saline 123 % of control | dose: 6.25 mg/kg/injection, schedule: Q01DX009 (ip), vehicle: saline 120 % of control

O=C1C2Nc3ccccc3N=C2OC1c1ccccc1 (configuration not stated)
inactive: [15] 96 % of control | [16] 96 % of control | [17] 100 % of control

COC1/C=C/OC2(C)Oc3c(C)c(O)c4c(O)c(c(/C=N/Nc5nc6c(N)ncnc6n5C5OC(CO)C(O)C5O)c(O)c4c3C2=O)NC(=O)C(C)=C/C=C/C(C)C(O)C(C)C(O)C(C)C(OC(C)=O)C1C (configuration not stated)
inactive: [9] 104 % of control | [10] 99 % of control | [11] 113 % of control

O=C(NCCCl)Oc1cccn(C(=O)NCCCl)c1=O
inactive: dose: 12.5 mg/kg/injection, schedule: Q01DX009 (sc), vehicle: saline with Tween-80 106 % of control and 111 % of control | [4] 111 % of control and 113 % of control | dose: 25.0 mg/kg/injection, schedule: Q01DX009 (sc), vehicle: saline with Tween-80 100 % of control and 115 % of control | [1] 112 % of control and 118 % of control | dose: 50.0 mg/kg/injection, schedule: Q01DX009 (sc), vehicle: saline with Tween-80 102 % of control and 115 % of control | dose: 100.0 mg/kg/injection, schedule: Q01DX009 (sc), vehicle: saline with Tween-80 109 % of control and 115 % of control | dose: 200.0 mg/kg/injection, schedule: Q01DX009 (sc), vehicle: saline with Tween-80 111 % of control and 123 % of control | dose: 400.0 mg/kg/injection, schedule: Q01DX009 (sc), vehicle: saline with Tween-80 95 % of control

OC1c2ccccc2-c2nc3ccccc3cc21 (configuration not stated)
inactive: [15] 110 % of control and 92 % of control | [16] 102 % of control and 86 % of control | [17] 107 % of control

Cc1c(C)c(Cl)c(C)c(C)c1Cl
inactive: dose: 5.0 mg/kg/injection, schedule: Q01DX009 (ip), vehicle: saline with Tween-80 95 % of control | dose: 10.0 mg/kg/injection, schedule: Q01DX009 (ip), vehicle: saline with Tween-80 100 % of control | dose: 20.0 mg/kg/injection, schedule: Q01DX009 (ip), vehicle: saline with Tween-80 100 % of control
